Tested on: CHO cell line (GAA LEC clone R3.3) expressing rh-GAA
Assay: Phosphorylation efficiency of rh-GAA from cultures containing mannosidase inhibitors ([32P] incorporation by GlcNAc phosphotransferase)
Format: cell-based, Chinese Hamster
Details: for [^32P] Phosphate Incorporation (cpm): conditioned media with 6 μg GAA; for effect on the phosphorylation reaction of rh-GAA: increasing amounts of inhibitor alone, versus GAA cultured without mannosidase inhibitors (FIG. 1)
Protocol: To determine whether mannosidase inhibitors can increase phosphorylation efficiency of recombinant human acid alpha glucosidase (rh-GAA), a CHO cell line (GAA LEC clone R3.3) expressing rh-GAA was grown in various conditions that contained different amounts of the following mannosidase the inhibitors: Kifunensin; Deoxymannojirimycin (DMJ); or combinations of both inhibitors. Conditioned media from each inhibitor condition containing 6 μg of GAA (based on GAA activity assay) was then incubated with purified bovine GlcNAc phosphotransferase (Pt'ase) and [^32P]UDP-GlcNAc. Subsequently, each phosphorylation reaction was loaded onto a concanavalin A-sepharose column to capture glycoproteins, e.g., rh-GAA. The concanavalin A-sepharose was washed and the resin was counted in a liquid scintillation counter to measure the ^32P incorporation, i.e., the extent of phosphorylation on rh-GAA. The results are summarized in Table 1 below and FIGS. 1 and 2.

Compound	[^32P] Phosphate Incorporation (cpm) (0.5 mM inhibitor in culture)	[^32P] Phosphate Incorporation (cpm) (1.0 mM inhibitor in culture)	[^32P] Phosphate Incorporation (cpm) (1.75 mM inhibitor in culture)	[^32P] Phosphate Incorporation (cpm) (2.5 mM inhibitor in culture)	[^32P] Phosphate Incorporation (cpm) (5.0 mM inhibitor in culture)	effect on the phosphorylation reaction of rh-GAA	[^32P] Phosphate Incorporation (cpm) (0.5 μg/ml inhibitor in culture)	[^32P] Phosphate Incorporation (cpm) (1.0 μg/ml inhibitor in culture)	[^32P] Phosphate Incorporation (cpm) (2.5 μg/ml inhibitor in culture)	[^32P] Phosphate Incorporation (cpm) (5.0 μg/ml inhibitor in culture)	[^32P] Phosphate Incorporation (cpm) (10.0 μg/ml inhibitor in culture)
OC[C@H]1NC[C@@H](O)[C@@H](O)[C@@H]1O [DMJ only, deoxymannojirimycin]	3656	4500	4450	7258	6413	greatly enhance					
O=C1N[C@@H]2[C@@H](O)[C@@H](O)[C@H](O)[C@@H](CO)N2C1=O [Kifunensin only, kifunensine]						greatly enhance	6675	8585	7147	6717	7116
